In publication PMC10764907, “Aryl-quinoline-4-carbonyl hydrazone bearing different 2-methoxyphenoxyacetamides as potent α-glucosidase inhibitors; molecular dynamics, kinetic and structure–activity relationship studies” (Scientific Reports, 2024):
Where two headings read alike, the source gives them in different places.

Experiments:
[1] = molecular target: T1, α-glucosidase (Saccharomyces cerevisiae, UniProt P53341); test: biochemical; format: biochemical; conditions: for IC50: α-glucosidase inhibition, mean ± SD
T1 sequence (P53341 whole entry): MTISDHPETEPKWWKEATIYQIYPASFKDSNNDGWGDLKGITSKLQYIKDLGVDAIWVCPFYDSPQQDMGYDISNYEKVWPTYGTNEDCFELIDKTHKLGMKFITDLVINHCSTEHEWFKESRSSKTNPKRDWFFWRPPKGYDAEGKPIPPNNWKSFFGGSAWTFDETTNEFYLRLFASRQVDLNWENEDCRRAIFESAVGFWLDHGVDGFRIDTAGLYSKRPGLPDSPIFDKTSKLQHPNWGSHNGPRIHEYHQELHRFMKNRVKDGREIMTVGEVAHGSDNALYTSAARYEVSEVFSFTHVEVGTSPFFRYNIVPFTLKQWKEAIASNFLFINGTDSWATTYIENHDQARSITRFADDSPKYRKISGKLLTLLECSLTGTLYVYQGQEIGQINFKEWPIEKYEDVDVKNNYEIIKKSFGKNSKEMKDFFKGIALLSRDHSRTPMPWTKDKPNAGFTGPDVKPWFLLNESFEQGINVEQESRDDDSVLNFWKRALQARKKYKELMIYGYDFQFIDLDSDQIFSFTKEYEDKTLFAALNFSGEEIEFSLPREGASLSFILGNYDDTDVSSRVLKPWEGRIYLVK

[2] = Concentrations of precipitation in the α-glucosidase inhibition assay; format: physicochemical
Description: Table 1 The α-glucosidase inhibition assay of 11a–o. | column: Concentrations of precipitation (µM)

[3] = molecular target: T1, α-glucosidase; test: Enzyme kinetic studies (Lineweaver–Burk plot, secondary plot); format: biochemical
Description: This pattern indicates a competitive inhibition mechanism. […] Additionally, by plotting the Km values against different inhibitor concentrations, an estimation of the inhibition constant (Ki) was obtained.

[4] = molecular target: T1, α-glucosidase; conditions: cited from earlier work; for IC50: Fig. 1
[5] = tested on: α-amylase; parameters: method as in doi:10.1016/j.molstruc.2022.133650; conditions: at 108 μM; cited from earlier work
[6] = previously reported quinoline inhibitors

Row | IC50 [1] | melting point | Concentrations of precipitation [2] | Structure (SMILES) | further results
1 | 156.8 ± 1.5 µM | > 250 °C | ≥ 375 µM | CCc1ccc(NC(=O)COc2ccc(C=NNC(=O)c3cc(-c4ccccc4)nc4ccccc34)cc2OC)cc1 [11d, N-(4-ethylphenyl)-2-(2-methoxy-4-((2-(2-phenylquinoline-4-carbonyl)hydrazono)methyl)phenoxy)acetamide] | –
2 | 52.6 ± 0.6 µM | > 250 °C | – | COc1cc(C=NNC(=O)c2cc(-c3ccccc3)nc3ccccc23)ccc1OCC(=O)Nc1ccc(F)cc1 [11e, N-(4-fluorophenyl)-2-(2-methoxy-4-((2-(2-phenylquinoline-4-carbonyl)hydrazono)methyl)phenoxy)acetamide] | –
3 | > 750 µM | > 250 °C | ≥ 375 µM | COc1cc(C=NNC(=O)c2cc(-c3ccccc3)nc3ccccc23)ccc1OCC(=O)Nc1ccc(Cl)cc1 [11f, N-(4-chlorophenyl)-2-(2-methoxy-4-((2-(2-phenylquinoline-4-carbonyl)hydrazono)methyl)phenoxy)acetamide] | –
4 | 180.9 ± 1.7 µM | > 250 °C | ≥ 375 µM | COc1cc(C=NNC(=O)c2cc(-c3ccccc3)nc3ccccc23)ccc1OCC(=O)Nc1ccc(Br)cc1 [11g, N-(4-bromophenyl)-2-(2-methoxy-4-((2-(2-phenylquinoline-4-carbonyl)hydrazineylidene)methyl)phenoxy)acetamide] | –
5 | 71.2 ± 0.6 µM | > 250 °C | – | COc1ccc(-c2cc(C(=O)NN=Cc3ccc(OCC(=O)Nc4ccccc4C)c(OC)c3)c3ccccc3n2)cc1 [11i, 2-(2-methoxy-4-((2-(2-(4-methoxyphenyl)quinoline-4-carbonyl)hydrazono)methyl)phenoxy)-N-(o-tolyl)acetamide] | –
6 | 61.8 ± 0.5 µM | > 250 °C | ≥ 190 µM | COc1ccc(NC(=O)COc2ccc(C=NNC(=O)c3cc(-c4ccc(OC)cc4)nc4ccccc34)cc2OC)cc1 [11j, 2-(2-methoxy-4-((2-(2-(4-methoxyphenyl)quinoline-4-carbonyl)hydrazono)methyl)phenoxy)-N-(4-methoxyphenyl)acetamide] | –
7 | > 750 µM | > 250 °C | ≥ 190 µM | COc1ccc(-c2cc(C(=O)NN=Cc3ccc(OCC(=O)Nc4ccc(F)cc4)c(OC)c3)c3ccccc3n2)cc1 [11l, N-(4-fluorophenyl)-2-(2-methoxy-4-((2-(2-(4-methoxyphenyl)quinoline-4-carbonyl)hydrazono)methyl)phenoxy)acetamide] | –
8 | 152 ± 1.7 µM | > 250 °C | ≥ 190 µM | COc1ccc(-c2cc(C(=O)NN=Cc3ccc(OCC(=O)Nc4ccc(Br)cc4)c(OC)c3)c3ccccc3n2)cc1 [11m, N-(4-bromophenyl)-2-(2-methoxy-4-((2-(2-(4-methoxyphenyl)quinoline-4-carbonyl)hydrazono)methyl)phenoxy)acetamide] | –
9 | 48.7 ± 0.9 µM | > 250 °C | ≥ 190 µM | COc1ccc(-c2cc(C(=O)NN=Cc3ccc(OCC(=O)Nc4ccc(Cl)cc4)c(OC)c3)c3ccccc3n2)cc1 [11n, N-(4-chlorophenyl)-2-(2-methoxy-4-((2-(2-(4-methoxyphenyl)quinoline-4-carbonyl)hydrazono)methyl)phenoxy)acetamide] | –
10 | 459.8 ± 1.5 µM | > 250 °C | – | COc1ccc(-c2cc(C(=O)NN=Cc3ccc(OCC(=O)Nc4ccc([N+](=O)[O-])cc4)c(OC)c3)c3ccccc3n2)cc1 [11o, 2-(2-methoxy-4-((2-(2-(4-methoxyphenyl)quinoline-4-carbonyl)hydrazono)methyl)phenoxy)-N-(4-nitrophenyl)acetamide] | –

Second part, the compound before the results:

Row | Structure (SMILES) | IC50 [1] | melting point | Concentrations of precipitation [2] | further results
11 | COc1cc(C=NNC(=O)c2cc(-c3ccccc3)nc3ccccc23)ccc1OCC(=O)Nc1ccccc1C [11a, 2-(2-methoxy-4-((2-(2-phenylquinoline-4-carbonyl)hydrazineylidene)methyl)phenoxy)-N-(o-tolyl)acetamide] | 34.8 ± 1.1 µM | > 250 °C | – | –
12 | COc1cc(C=NNC(=O)c2cc(-c3ccccc3)nc3ccccc23)ccc1OCC(=O)Nc1ccc(C)cc1 [11b, 2-(2-methoxy-4-((2-(2-phenylquinoline-4-carbonyl)hydrazono)methyl)phenoxy)-N-(p-tolyl)acetamide] | 95.2 ± 1.2 µM | > 250 °C | ≥ 375 µM | –
13 | COc1ccc(NC(=O)COc2ccc(C=NNC(=O)c3cc(-c4ccccc4)nc4ccccc34)cc2OC)cc1 [11c, 2-(2-methoxy-4-((2-(2-phenylquinoline-4-carbonyl)hydrazineylidene)methyl)phenoxy)-N-(4-methoxyphenyl)acetamide] | 43.7 ± 1 µM | > 250 °C | – | –
14 | COc1ccc(-c2cc(C(=O)NN=Cc3ccc(OCC(=O)Nc4ccccc4)c(OC)c3)c3ccccc3n2)cc1 [11h, 2-(2-methoxy-4-((2-(2-(4-methoxyphenyl)quinoline-4-carbonyl)hydrazono)methyl)phenoxy)-N-phenylacetamide] | 62.4 ± 0.9 µM | > 250 °C | ≥ 375 µM | fold more potent vs positive control ([1]; vs acarbose): more than 11 fold
15 | CCc1ccc(NC(=O)COc2ccc(C=NNC(=O)c3cc(-c4ccc(OC)cc4)nc4ccccc34)cc2OC)cc1 [11k, N-(4-ethylphenyl)-2-(2-methoxy-4-((2-(2-(4-methoxyphenyl)quinoline-4-carbonyl)hydrazono)methyl)phenoxy)acetamide] | 26 ± 0.8 µM | > 250 °C | – | Ki [3]: 25.6 µM; mode of inhibition ([3]; Lineweaver–Burk plot): competitive
16 | O=C(O)c1ccc2ccccc2n1 [A] | – | – | – | IC50 [4, 6]: 9.1 µM
17 | O=C(O)c1cnc2ccccc2c1 [B] | – | – | – | IC50 [4, 6]: 10.6 µM
18 | O=C(CSc1nc2ccccc2cc1-c1nc2ccccc2[nH]1)Nc1ccc2ccccc2c1 [C] | – | – | – | IC50 [4]: 3.2 µM
19 | O=C(NCCCC1OC(CO)C(O)C(O)C1O)c1cc(-c2ccccc2)nc2ccccc12 (centres unmarked) [D] | – | – | – | IC50 [4]: 7.98 µM
20 | O=C(N/N=C/c1cccc(F)c1)c1ccc2nc(-c3ccccc3)c(-c3ccccc3)nc2c1 [E] | – | – | – | IC50 [4]: 111 µM
21 | COc1ccc(-c2nc3cc(C(=O)N/N=C/c4ccc(O)c(OC)c4)ccc3[nH]2)cc1 [F] | – | – | – | IC50 [4]: 60.1 µM
22 | COc1cc(/C=N/NC(=O)CC#N)ccc1OCc1cn(Cc2ccc(Cl)cc2)nn1 [G] | – | – | – | IC50 [4]: 1 µM
23 | CCc1ccc(NC(=O)Cn2cc(COc3ccc(-c4nc5ccccc5[nH]4)cc3)nn2)cc1 [H] | – | – | – | Ki [4]: 23 µM; mode of inhibition [4]: competitive
24 | COc1cc(-c2nc3ccccc3[nH]2)ccc1OCC(=O)Nc1ccc(F)cc1 [I] | – | – | – | IC50 [4]: 99.6 µM; Ki [4]: 67 µM; mode of inhibition [4]: competitive; α-amylase inhibition [5]: 45.0 ± 0.8%
25 | COc1cc(-c2nc3ccccc3c(=O)[nH]2)ccc1OCC(=O)Nc1ccccc1F [J] | – | – | – | IC50 [4]: 14.4 µM
